Assay [1] has as its target T1, Tyrosine-protein phosphatase non-receptor type 22 (Homo sapiens) (UniProt Q9Y2R2).
T1 sequence (whole entry): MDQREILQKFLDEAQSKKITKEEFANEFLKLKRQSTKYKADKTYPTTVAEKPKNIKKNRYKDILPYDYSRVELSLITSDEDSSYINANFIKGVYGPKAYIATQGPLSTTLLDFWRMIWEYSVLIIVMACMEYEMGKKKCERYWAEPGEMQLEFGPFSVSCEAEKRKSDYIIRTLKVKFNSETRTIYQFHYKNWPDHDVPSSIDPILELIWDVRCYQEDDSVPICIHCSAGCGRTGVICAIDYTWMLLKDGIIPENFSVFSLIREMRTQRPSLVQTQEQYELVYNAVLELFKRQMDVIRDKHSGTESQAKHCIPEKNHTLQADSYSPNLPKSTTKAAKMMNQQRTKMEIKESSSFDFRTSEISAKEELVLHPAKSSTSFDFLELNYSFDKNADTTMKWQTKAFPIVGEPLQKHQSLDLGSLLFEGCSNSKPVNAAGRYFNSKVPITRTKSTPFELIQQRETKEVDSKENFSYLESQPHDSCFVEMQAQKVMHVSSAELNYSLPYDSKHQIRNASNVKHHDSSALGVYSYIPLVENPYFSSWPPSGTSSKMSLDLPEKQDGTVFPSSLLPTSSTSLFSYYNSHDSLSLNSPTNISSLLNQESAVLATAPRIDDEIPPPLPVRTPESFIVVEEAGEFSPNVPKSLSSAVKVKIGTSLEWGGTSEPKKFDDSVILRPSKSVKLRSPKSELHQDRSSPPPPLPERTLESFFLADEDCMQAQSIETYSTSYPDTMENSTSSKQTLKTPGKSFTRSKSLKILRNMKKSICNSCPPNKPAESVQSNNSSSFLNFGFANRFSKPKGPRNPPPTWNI
As to the kind of experiment: Inhibition of Lyp expressed in Escherichia coli […].

Assay [2] can be described thus: Activity at Lyp CCPGCC mutant expressed in Escherichia coli using pNPP as a substrate […].

Broadly, the kcat is the number of substrate molecules converted per active site and unit of time at saturation. Consider `O=C(O)c1ccccc1-c1c2ccc(=O)c([As]3SCCS3)c-2oc2c([As]3SCCS3)c(O)ccc12`, for which, in assay [1], the Activity entry is “Dose-dependent effect”. In addition, the catalytic constant (kcat) in assay [2] is 0.057 s⁻¹.

These data come from ChEMBL document CHEMBL1177690, “Target-specific control of lymphoid-specific protein tyrosine phosphatase (Lyp) activity” (Bioorg Med Chem, 2010).
